Data taken from patent US10947271B2, “Antibacterial agents” (THE UNIVERSITY OF QUEENSLAND, priority 2014, dated 2021).

Legend:
Assay type in all cases: cell-based
Conditions in all cases: 24 h incubation, visual reading
[1] = tested on: Staphylococcus aureus MRSA ATCC 43300; assay: MIC assay, S. aureus MRSA ATCC 43300
Summary of the method: (§1)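 Twofold broth microdilution in Mueller Hinton broth; compounds tested from 8 μg/ml to 0.003 μg/ml. Mid-log cultures were inoculated at 5×10e5 CFU/mL and incubated 24 h at 37° C. MIC was the lowest concentration with no visible growth.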

[2] = tested on: Streptococcus pneumoniae MDR ATCC 700677; assay: MIC assay, S. pneumoniae MDR ATCC 700677
Summary of the method: as §1

[3] = tested on: Enterococcus faecium MDR Van A ATCC 51559; assay: MIC assay, E. faecium MDR Van A ATCC 51559
Summary of the method: as §1

## CCCCCCCCCCCCCC(=O)N[C@@H](CCCCN)C(=O)N[C@@H](CCCCN)C(=O)NCC(=O)NCCCNC(=O)[C@H]1NC(=O)[C@H]2NC(=O)[C@H](NC(=O)[C@@H]3NC(=O)[C@H](CC(N)=O)NC(=O)[C@H](NC(=O)[C@@H](CC(C)C)NC)[C@H](O)c4ccc(c(Cl)c4)Oc4cc3cc(c4O[C@@H]3O[C@H](CO)[C@@H](O)[C@H](O)[C@H]3O[C@H]3C[C@](C)(N)[C@H](O)[C@H](C)O3)Oc3ccc(cc3Cl)[C@H]2O)c2ccc(O)c(c2)-c2c(O)cc(O)cc21 [MCC_000784]
[1]
  Minimum Inhibitory Concentration (MIC) Staph. aureus ATCC43300: xxxxx (xxxxx = <0.01)
[2]
  Minimum Inhibitory Concentration (MIC) S. pneumoniae ATCC 700677: xxxxx (xxxxx = <0.01)
[3]
  Minimum Inhibitory Concentration (MIC) E. faecium ATCC51559: xxxx (xxxx = 0.01-<0.1)

## CCCCCCCCCN1CCC(C(=O)N[C@@H](CCCCN)C(=O)N[C@@H](CCCCN)C(=O)NCCCNC(=O)[C@H]2NC(=O)[C@H]3NC(=O)[C@H](NC(=O)[C@@H]4NC(=O)[C@H](CC(N)=O)NC(=O)[C@H](NC(=O)[C@@H](CC(C)C)NC)[C@H](O)c5ccc(c(Cl)c5)Oc5cc4cc(c5O[C@@H]4O[C@H](CO)[C@@H](O)[C@H](O)[C@H]4O[C@H]4C[C@](C)(N)[C@H](O)[C@H](C)O4)Oc4ccc(cc4Cl)[C@H]3O)c3ccc(O)c(c3)-c3c(O)cc(O)cc32)CC1 [MCC_000937]
[1]
  Minimum Inhibitory Concentration (MIC) Staph. aureus ATCC43300: xxxx (xxxx = 0.01-<0.1)
[2]
  Minimum Inhibitory Concentration (MIC) S. pneumoniae ATCC 700677: xxxx (xxxx = 0.01-<0.1)
[3]
  Minimum Inhibitory Concentration (MIC) E. faecium ATCC51559: xx (xx = 1-4)

## CCCCCCCCCCCCCC(=O)N[C@@H](CCCCN)C(=O)N[C@@H](CCCCN)C(=O)N[C@@H](CCCCNC(=O)[C@H]1NC(=O)[C@H]2NC(=O)[C@H](NC(=O)[C@@H]3NC(=O)[C@H](CC(N)=O)NC(=O)[C@H](NC(=O)[C@@H](CC(C)C)NC)[C@H](O)c4ccc(c(Cl)c4)Oc4cc3cc(c4O[C@@H]3O[C@H](CO)[C@@H](O)[C@H](O)[C@H]3O[C@H]3C[C@](C)(N)[C@H](O)[C@H](C)O3)Oc3ccc(cc3Cl)[C@H]2O)c2ccc(O)c(c2)-c2c(O)cc(O)cc21)C(N)=O [MCC_000974]
[1]
  Minimum Inhibitory Concentration (MIC) Staph. aureus ATCC43300: xxxxx (xxxxx = <0.01)
[2]
  Minimum Inhibitory Concentration (MIC) S. pneumoniae ATCC 700677: xxxxx (xxxxx = <0.01)
[3]
  Minimum Inhibitory Concentration (MIC) E. faecium ATCC51559: xxx (xxx = 0.1-<1)

## CCCCCCCCCCCCC(=O)N[C@@H](CCCCN)C(=O)N[C@@H](CCCCN)C(=O)N[C@@H](CCCCNC(=O)[C@H]1NC(=O)[C@H]2NC(=O)[C@H](NC(=O)[C@@H]3NC(=O)[C@H](CC(N)=O)NC(=O)[C@H](NC(=O)[C@@H](CC(C)C)NC)[C@H](O)c4ccc(c(Cl)c4)Oc4cc3cc(c4O[C@@H]3O[C@H](CO)[C@@H](O)[C@H](O)[C@H]3O[C@H]3C[C@](C)(N)[C@H](O)[C@H](C)O3)Oc3ccc(cc3Cl)[C@H]2O)c2ccc(O)c(c2)-c2c(O)cc(O)cc21)C(N)=O [MCC_000975]
[1]
  Minimum Inhibitory Concentration (MIC) Staph. aureus ATCC43300: xxxxx (xxxxx = <0.01)
[2]
  Minimum Inhibitory Concentration (MIC) S. pneumoniae ATCC 700677: xxxxx (xxxxx = <0.01)
[3]
  Minimum Inhibitory Concentration (MIC) E. faecium ATCC51559: xxx (xxx = 0.1-<1)

## CCCCCCCCCCCC(=O)N[C@@H](CCCCN)C(=O)N[C@@H](CCCCN)C(=O)NCCCNC(=O)[C@H]1NC(=O)[C@H]2NC(=O)[C@H](NC(=O)[C@@H]3NC(=O)[C@H](CC(N)=O)NC(=O)[C@H](NC(=O)[C@@H](CC(C)C)NC)[C@H](O)c4ccc(c(Cl)c4)Oc4cc3cc(c4O[C@@H]3O[C@H](CO)[C@@H](O)[C@H](O)[C@H]3O[C@H]3C[C@](C)(N)[C@H](O)[C@H](C)O3)Oc3ccc(cc3Cl)[C@H]2O)c2ccc(O)c(c2)-c2c(O)cc(O)cc21 [MCC_000978]
[1]
  Minimum Inhibitory Concentration (MIC) Staph. aureus ATCC43300: xxxxx (xxxxx = <0.01)
[2]
  Minimum Inhibitory Concentration (MIC) S. pneumoniae ATCC 700677: xxxxx (xxxxx = <0.01)
[3]
  Minimum Inhibitory Concentration (MIC) E. faecium ATCC51559: xxx (xxx = 0.1-<1)

## CCCCCCCCCCCCCC(=O)N[C@@H](CCCCN)C(=O)N[C@@H](CCCCN)C(=O)N[C@@H](Cc1cn(CCCNC(=O)[C@H]2NC(=O)[C@H]3NC(=O)[C@H](NC(=O)[C@@H]4NC(=O)[C@H](CC(N)=O)NC(=O)[C@H](NC(=O)[C@@H](CC(C)C)NC)[C@H](O)c5ccc(c(Cl)c5)Oc5cc4cc(c5O[C@@H]4O[C@H](CO)[C@@H](O)[C@H](O)[C@H]4O[C@H]4C[C@](C)(N)[C@H](O)[C@H](C)O4)Oc4ccc(cc4Cl)[C@H]3O)c3ccc(O)c(c3)-c3c(O)cc(O)cc32)nn1)C(N)=O [MCC_000979]
[1]
  Minimum Inhibitory Concentration (MIC) Staph. aureus ATCC43300: xxxxx (xxxxx = <0.01)
[2]
  Minimum Inhibitory Concentration (MIC) S. pneumoniae ATCC 700677: xxxxx (xxxxx = <0.01)
[3]
  Minimum Inhibitory Concentration (MIC) E. faecium ATCC51559: xxx (xxx = 0.1-<1)

## CCCCCCCCCCCN1CCC(C(=O)N[C@@H](CCCCN)C(=O)N[C@@H](CCCCN)C(=O)N[C@@H](CCCCNC(=O)[C@H]2NC(=O)[C@H]3NC(=O)[C@H](NC(=O)[C@@H]4NC(=O)[C@H](CC(N)=O)NC(=O)[C@H](NC(=O)[C@@H](CC(C)C)NC)[C@H](O)c5ccc(c(Cl)c5)Oc5cc4cc(c5O[C@@H]4O[C@H](CO)[C@@H](O)[C@H](O)[C@H]4O[C@H]4C[C@](C)(N)[C@H](O)[C@H](C)O4)Oc4ccc(cc4Cl)[C@H]3O)c3ccc(O)c(c3)-c3c(O)cc(O)cc32)C(N)=O)CC1 [MCC_004818]
[1]
  Minimum Inhibitory Concentration (MIC) Staph. aureus ATCC43300: xxxx (xxxx = 0.01-<0.1)
[2]
  Minimum Inhibitory Concentration (MIC) S. pneumoniae ATCC 700677: xxxx (xxxx = 0.01-<0.1)
[3]
  Minimum Inhibitory Concentration (MIC) E. faecium ATCC51559: xxx (xxx = 0.1-<1)

## CCCCCCCN1CCC(C(=O)N[C@@H](CCCCN)C(=O)N[C@@H](CCCCN)C(=O)N[C@@H](CCCCNC(=O)[C@H]2NC(=O)[C@H]3NC(=O)[C@H](NC(=O)[C@@H]4NC(=O)[C@H](CC(N)=O)NC(=O)[C@H](NC(=O)[C@@H](CC(C)C)NC)[C@H](O)c5ccc(c(Cl)c5)Oc5cc4cc(c5O[C@@H]4O[C@H](CO)[C@@H](O)[C@H](O)[C@H]4O[C@H]4C[C@](C)(N)[C@H](O)[C@H](C)O4)Oc4ccc(cc4Cl)[C@H]3O)c3ccc(O)c(c3)-c3c(O)cc(O)cc32)C(N)=O)CC1 [MCC_004820]
[1]
  Minimum Inhibitory Concentration (MIC) Staph. aureus ATCC43300: xxxx (xxxx = 0.01-<0.1)
[2]
  Minimum Inhibitory Concentration (MIC) S. pneumoniae ATCC 700677: xxx (xxx = 0.1-<1)
[3]
  Minimum Inhibitory Concentration (MIC) E. faecium ATCC51559: x (x = >4)

## CCCCCCCNc1ccc(C(=O)N[C@@H](CCCCN)C(=O)N[C@@H](CCCCN)C(=O)N[C@@H](CCCCNC(=O)[C@H]2NC(=O)[C@H]3NC(=O)[C@H](NC(=O)[C@@H]4NC(=O)[C@H](CC(N)=O)NC(=O)[C@H](NC(=O)[C@@H](CC(C)C)NC)[C@H](O)c5ccc(c(Cl)c5)Oc5cc4cc(c5O[C@@H]4O[C@H](CO)[C@@H](O)[C@H](O)[C@H]4O[C@H]4C[C@](C)(N)[C@H](O)[C@H](C)O4)Oc4ccc(cc4Cl)[C@H]3O)c3ccc(O)c(c3)-c3c(O)cc(O)cc32)C(N)=O)cc1 [MCC_004821]
[1]
  Minimum Inhibitory Concentration (MIC) Staph. aureus ATCC43300: xxxx (xxxx = 0.01-<0.1)
[2]
  Minimum Inhibitory Concentration (MIC) S. pneumoniae ATCC 700677: xxxx (xxxx = 0.01-<0.1)
[3]
  Minimum Inhibitory Concentration (MIC) E. faecium ATCC51559: xx (xx = 1-4)

## CNc1ccc(C(=O)N[C@@H](CCCCN)C(=O)N[C@@H](CCCCN)C(=O)N[C@@H](CCCCNC(=O)[C@H]2NC(=O)[C@H]3NC(=O)[C@H](NC(=O)[C@@H]4NC(=O)[C@H](CC(N)=O)NC(=O)[C@H](NC(=O)[C@@H](CC(C)C)NC)[C@H](O)c5ccc(c(Cl)c5)Oc5cc4cc(c5O[C@@H]4O[C@H](CO)[C@@H](O)[C@H](O)[C@H]4O[C@H]4C[C@](C)(N)[C@H](O)[C@H](C)O4)Oc4ccc(cc4Cl)[C@H]3O)c3ccc(O)c(c3)-c3c(O)cc(O)cc32)C(N)=O)cc1 [MCC_004822]
[1]
  Minimum Inhibitory Concentration (MIC) Staph. aureus ATCC43300: xxx (xxx = 0.1-<1)
[2]
  Minimum Inhibitory Concentration (MIC) S. pneumoniae ATCC 700677: xx (xx = 1-4)
[3]
  Minimum Inhibitory Concentration (MIC) E. faecium ATCC51559: x (x = >4)

## CCCCCCCCCN1CCC(C(=O)N[C@@H](CCCCN)C(=O)N[C@@H](CCCCNC(=O)[C@H]2NC(=O)[C@H]3NC(=O)[C@H](NC(=O)[C@@H]4NC(=O)[C@H](CC(N)=O)NC(=O)[C@H](NC(=O)[C@@H](CC(C)C)NC)[C@H](O)c5ccc(c(Cl)c5)Oc5cc4cc(c5O[C@@H]4O[C@H](CO)[C@@H](O)[C@H](O)[C@H]4O[C@H]4C[C@](C)(N)[C@H](O)[C@H](C)O4)Oc4ccc(cc4Cl)[C@H]3O)c3ccc(O)c(c3)-c3c(O)cc(O)cc32)C(N)=O)CC1 [MCC_004825]
[1]
  Minimum Inhibitory Concentration (MIC) Staph. aureus ATCC43300: xxxx (xxxx = 0.01-<0.1)
[2]
  Minimum Inhibitory Concentration (MIC) S. pneumoniae ATCC 700677: xxx (xxx = 0.1-<1)
[3]
  Minimum Inhibitory Concentration (MIC) E. faecium ATCC51559: xxx (xxx = 0.1-<1)

## CCCCCCCCCCC(=O)N[C@@H](CCCCN)C(=O)N[C@@H](CCCCN)C(=O)NCc1cccc(CNC(=O)[C@H]2NC(=O)[C@H]3NC(=O)[C@H](NC(=O)[C@@H]4NC(=O)[C@H](CC(N)=O)NC(=O)[C@H](NC(=O)[C@@H](CC(C)C)NC)[C@H](O)c5ccc(c(Cl)c5)Oc5cc4cc(c5O[C@@H]4O[C@H](CO)[C@@H](O)[C@H](O)[C@H]4O[C@H]4C[C@](C)(N)[C@H](O)[C@H](C)O4)Oc4ccc(cc4Cl)[C@H]3O)c3ccc(O)c(c3)-c3c(O)cc(O)cc32)c1 [MCC_005044]
[1]
  Minimum Inhibitory Concentration (MIC) Staph. aureus ATCC43300: xxxxx (xxxxx = <0.01)
[2]
  Minimum Inhibitory Concentration (MIC) S. pneumoniae ATCC 700677: xxxxx (xxxxx = <0.01)
[3]
  Minimum Inhibitory Concentration (MIC) E. faecium ATCC51559: xxx (xxx = 0.1-<1)

## CCCCCCCCCCC(=O)N[C@@H](CCCCN)C(=O)N[C@@H](CCCCNC(=O)[C@H]1NC(=O)[C@H]2NC(=O)[C@H](NC(=O)[C@@H]3NC(=O)[C@H](CC(N)=O)NC(=O)[C@H](NC(=O)[C@@H](CC(C)C)NC)[C@H](O)c4ccc(c(Cl)c4)Oc4cc3cc(c4O[C@@H]3O[C@H](CO)[C@@H](O)[C@H](O)[C@H]3O[C@H]3C[C@](C)(N)[C@H](O)[C@H](C)O3)Oc3ccc(cc3Cl)[C@H]2O)c2ccc(O)c(c2)-c2c(O)cc(O)cc21)C(N)=O [MCC_005062]
[1]
  Minimum Inhibitory Concentration (MIC) Staph. aureus ATCC43300: xxxx (xxxx = 0.01-<0.1)
[2]
  Minimum Inhibitory Concentration (MIC) S. pneumoniae ATCC 700677: xxxx (xxxx = 0.01-<0.1)
[3]
  Minimum Inhibitory Concentration (MIC) E. faecium ATCC51559: x (x = >4)
